Results published in US20090022824A1, “Pesticidal formulations” (Akhil Technologies Pty Ltd, priority 2005, published 2009).

Test system: root-knot nematode (Meloidogyne javanica)
Test: Efficacy to control root-knot nematode, pot trial with tomato plants
Type: in vivo
Details: tomato cv. Tiny Tim, relative to untreated control
Protocol: The efficacy of pesticidal formulations in the control of root-knot nematode (Meloidogyne javanica) as a pre-plant soil pesticidal formulation was investigated.
The root-knot nematode colonies were prepared with 1 kg of river sand placed in 100 mm diameter pots. The sand was inoculated with 10,000 eggs of root-knot nematode (M. javanica). The eggs were harvested from the roots of infected tomato plants (Lycopersicon esculentum cv. Tiny Tim) by washing in a 1% bleach solution for 3 minutes, collecting the […] on a 25 μm sieve and rinsing in running tap water for 2 minutes.
The appropriate treatment was applied to each pot in 5 mL of water using five 1 mL injections spaced evenly around the pot. Each dilution of the pesticidal formulation was applied using a pipette so that the tip of the pipette was 20 mm below the soil surface. The pots were allowed to stand for 7 days before planting a three week old tomato plant (c.v. Tiny Tim) in each pot.
Six weeks after planting the tomatoes were harvested. The tops of the plants were removed and dried for 4 days at 70° C. before being weighed. […] The juvenile nematodes were collected on a 25 μm sieve, backwashed and counted using a compound microscope at 40× magnification. […]

CNC(=S)[S-].[Na+] [metham sodium]
juvenile root-knot nematodes extracted from the roots (six weeks after planting, FIG. 2): significantly fewer | galls on the root system of tomato plants (gall rating) (soil inoculated with 10,000 eggs, harvested six weeks after planting, FIG. 1): significantly fewer
